From US9604975B2, “Indolyl-pyridone derivatives having checkpoint kinase 1 inhibitory activity” (Vernalis (R&D) Ltd., priority 2009, dated 2017) come the findings set out here.

As usually defined, the IC50 is the midpoint of a concentration-inhibition curve.

This assay concerns the target T1, CHK1 (Homo sapiens, UniProt O14757).
T1 construct: His; purchased Invitrogen
T1 sequence (O14757 1-476): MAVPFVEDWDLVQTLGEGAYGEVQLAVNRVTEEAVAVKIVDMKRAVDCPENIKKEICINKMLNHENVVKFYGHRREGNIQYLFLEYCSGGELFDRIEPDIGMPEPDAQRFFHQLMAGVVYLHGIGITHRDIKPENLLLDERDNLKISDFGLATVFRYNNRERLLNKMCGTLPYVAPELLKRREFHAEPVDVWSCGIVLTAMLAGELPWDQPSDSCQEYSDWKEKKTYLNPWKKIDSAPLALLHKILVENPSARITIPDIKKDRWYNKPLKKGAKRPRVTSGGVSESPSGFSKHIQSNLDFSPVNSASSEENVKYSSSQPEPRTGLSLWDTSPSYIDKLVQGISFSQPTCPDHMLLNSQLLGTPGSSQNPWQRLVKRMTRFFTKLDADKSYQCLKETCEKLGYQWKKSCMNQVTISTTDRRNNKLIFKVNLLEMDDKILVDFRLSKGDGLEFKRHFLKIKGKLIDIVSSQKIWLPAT
The assay is described as follows: CHK1 Enzyme Assay (phosphorylation of Chktide peptide, 33P-ATP filter assay). Particulars: 12.5 nM His-CHK1, 0.01 mM ATP, 40 minutes at 30° C.; read-out: CHK1 Enzyme Activity (IC50 range). The assay is classed as biochemical. In outline: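 His-CHK1 (12.5 nM) phosphorylating 14.8 μM Chktide with 0.01 mM ATP plus 33P-γ-ATP, in 50 mM Hepes-NaOH pH 7.5 with 0.1 mg/mL BSA. Incubated with inhibitor for 40 min at 30 °C. Stopped with phosphoric acid; phosphopeptide captured on filter and counted by scintillation.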

A value given as a limit tells only on which side of the number the result lay.

Turning to `O=C(Nc1c[nH]c(=O)c(-c2cc3cc(CN4CCC(F)(F)CC4)ccc3[nH]2)c1)c1cnn(Cc2ccccc2)c1` [Example 64, 1-Benzyl-1H-pyrazole-4-carboxylic acid {5-[5-(4,4-difluoro-piperidin-1-ylmethyl)-1H-indol-2-yl]-6-oxo-1,6-dihydro-pyridin-3-yl}-amide], the IC50 was less than 100 nM.
As for `O=C(Nc1c[nH]c(=O)c(-c2cc3cc(CN4CCN(CCO)CC4)ccc3[nH]2)c1)c1cnn(Cc2ccccc2)c1` [Example 65, 1-Benzyl-1H-pyrazole-4-carboxylic acid (5-{5-[4-(2-hydroxy-ethyl)-piperazin-1-ylmethyl]-1H-indol-2-yl}-6-oxo-1,6-dihydro-pyridin-3-yl)-amide], the IC50 was less than 100 nM.
Turning to `O=C(Nc1c[nH]c(=O)c(-c2cc3cc(CN4CCN(CCO)CC4)ccc3[nH]2)c1)c1cnn(Cc2ccc(Cl)cc2)c1` [Example 66, 1-(4-Chloro-benzyl)-1H-pyrazole-4-carboxylic acid (5-{5-[4-(2-hydroxy-ethyl)-piperazin-1-ylmethyl]-1H-indol-2-yl}-6-oxo-1,6-dihydro-pyridin-3-yl)-amide], the IC50 was less than 100 nM.
`O=C(Nc1c[nH]c(=O)c(-c2cc3cc(CN4CCOCC4)ccc3[nH]2)c1)c1cnn(Cc2ccc(Cl)cc2)c1` [Example 67, 1-(4-Chloro-benzyl)-1H-pyrazole-4-carboxylic acid [5-(5-morpholin-4-ylmethyl-1H-indol-2-yl)-6-oxo-1,6-dihydro-pyridin-3-yl]-amide]: the IC50 was less than 100 nM.
`CS(=O)(=O)CCNCc1ccc2[nH]c(-c3cc(NC(=O)c4cnn(Cc5ccccc5)c4)c[nH]c3=O)cc2c1` [Example 68]: the IC50 was less than 100 nM.
Take `CC1CN(Cc2ccc3[nH]c(-c4cc(NC(=O)c5cnn(Cc6ccccc6)c5)c[nH]c4=O)cc3c2)CC(C)O1` (centres unmarked) [Example 69, 1-Benzyl-1H-pyrazole-4-carboxylic acid {5-[5-(2,6-dimethyl-morpholin-4-ylmethyl)-1H-indol-2-yl]-6-oxo-1,6-dihydro-pyridin-3-yl}-amide]: the IC50 was less than 100 nM.
To `CC1CN(Cc2ccc3[nH]c(-c4cc(NC(=O)c5cnn(Cc6ccccc6)c5)c[nH]c4=O)cc3c2)CCN1C` (centres unmarked) [Example 70, 1-Benzyl-1H-pyrazole-4-carboxylic acid {5-[5-(3,4-dimethyl-piperazin-1-ylmethyl)-1H-indol-2-yl]-6-oxo-1,6-dihydro-pyridin-3-yl}-amide] belongs less than 100 nM.
To `CC1CN(Cc2ccc3[nH]c(-c4cc(NC(=O)c5cnn(Cc6ccc(C(C)C)cc6)c5)c[nH]c4=O)cc3c2)CC(C)O1` (centres unmarked) [Example 72, 1-(4-isopropylbenzyl)-1H-pyrazole-4-carboxylic acid {5-[5-(2,6-dimethylmorpholin-4-ylmethyl)-1H-indol-2-yl)-6-oxo-1,6-dihydropyridin-3-yl}-amide] belongs less than 100 nM; to `CC(C)c1ccc(Cn2cc(C(=O)Nc3c[nH]c(=O)c(-c4cc5cc(CN6CCC(F)CC6)ccc5[nH]4)c3)cn2)cc1` [Example 73, 1-(4-isopropylbenzyl)-1H-pyrazole-4-carboxylic acid {5-[5-(4-fluoropiperidin-1-ylmethyl)-1H-indol-2-yl)-6-oxo-1,6-dihydropyridin-3-yl}-amide], less than 100 nM.
To `Cc1ccc(Cn2cc(C(=O)Nc3c[nH]c(=O)c(-c4cc5cc(CN6C[C@@H](C)O[C@@H](C)C6)ccc5[nH]4)c3)cn2)cc1` [Example 74, 1-(4-Methyl-benzyl)-1H-pyrazole-4-carboxylic acid {5-[5-(cis-2,6-dimethyl-morpholin-4-ylmethyl)-1H-indol-2-yl]-6-oxo-1,6-dihydro-pyridin-3-yl}-amide] belongs less than 100 nM.
As for `CCN(CC)Cc1ccc2[nH]c(-c3cc(NC(=O)c4cnn(Cc5ccc(C)cc5)c4)c[nH]c3=O)cc2c1` [Example 75, 1-(4-Methyl-benzyl)-1H-pyrazole-4-carboxylic acid [5-(5-diethylaminomethyl-1H-indol-2-yl)-6-oxo-1,6-dihydro-pyridin-3-yl]-amide], the IC50 was less than 100 nM.
